Where two headings read alike, the source gives them in different places.

What all share (format): in vivo
One experiment relates to Triticum aestivum. The experiment can be described thus: Growth height of young cereal plants (Example 11, Table A). The text has this: (§1) The vessels used for the experiments were plastic pots having a volume of 1,130 cm^3 (Table A) or paraffined paper cups having a volume of 170 cm^3 (Table B). The pots and cups were filled with a sandy loam. The seeds of the test plants-separated by species-were sown shallow. Preemergence treatment (soil treatment) was effected immediately after sowing and before germination of the seeds. Seeds lying on the surface came into contact with the active ingredients. Postemergence treatment (leaf treatment) took place at an average growth height of the plants (depending on the rate of growth) of from 6 to 10 cm. The substances were suspended, emulsified or dissolved in water as diluent and applied by means of fine nozzles. The vessels were kept in the greenhouse in a temperature range of 12° C. to 25° C., and were regularly sprinkler irrigated for the duration of the experiment. The observation period was 6 to 8 weeks.

A further experiment has as its system Hordeum vulgare. Described as above. Conditions: soil treatment.
Excerpt: as §1

The test system of the next experiment is Solanum nigrum. Briefly: Herbicidal action (Example 25). As to the method: (§2) Paraffined paper cups having a volume of 170 cm^3 were filled with a sandy loam, and the seeds of the test plants sown therein, separated by species. (The species are also listed below.)
(§3) In the first group, treatment was effected immediately after sowing and before germination of the seeds (preemergence treatment=soil treatment). Shallow sown seeds not completely covered with soil came into contact with the active ingredients. In the second group, the plants were treated postemergence (=leaf treatment) at a growth height of from 2 to 8 cm, depending on the rate of growth and shape of the species concerned. The compounds were suspended or emulsified in water and applied with the aid of fine nozzles. The soil and plants were thoroughly sprinkler irrigated for the duration of the experiment. The cups were placed in the greenhouse and kept in the temperature range 12°-25° C. or 18°-35° C., depending on the temperature requirements of the various species. After 2 to 6 weeks the action was assessed visually on a 0 to 100 scale, 0 denoting no damage and 100 denoting plants not germinated or completely destroyed.

In a further experiment the test system is Galium aparine. The experiment can be described thus: Herbicidal action (Example 25). Conditions: read-out: percentage damage; for pest or weed control at 2000 g/ha: 2.0 kg/ha; for pest or weed control at 4000 g/ha: 4.0 kg/ha; for pest or weed control at 8000 g/ha: 8.0 kg/ha. How it is done: as §2, §3
The test system of another experiment is Poa annua. Briefly: Herbicidal action (Example 25). Conditions: Poa annua, read-out: percentage damage; for pest or weed control at 2000 g/ha: 2.0 kg/ha; for pest or weed control at 4000 g/ha: 4.0 kg/ha; for pest or weed control at 8000 g/ha: 8.0 kg/ha. As to the method:
as §2, §3

For another experiment, the system named is Lamium spp. The experiment can be described thus: Herbicidal action (Example 25). As to the method:
as §2, §3

As to `Clc1ccc(N2N=NC3C4CC(C5N=NC45)C32)c(Cl)c1` (centres unmarked), the Growth height in the experiment with Triticum aestivum (leaf treatment, 0.5 kg/ha) is given as 40 cm; in the experiment on Triticum aestivum (leaf treatment, 1.0 kg/ha), 34 cm; in the experiment with Triticum aestivum (leaf treatment, 2.0 kg/ha), 35 cm; with Triticum aestivum (soil treatment, 0.5 kg/ha), 25 cm; in the experiment with Triticum aestivum (soil treatment, 1.0 kg/ha) it was 25 cm; with Triticum aestivum (soil treatment, 2.0 kg/ha), 20 cm. Further, the Growth height in the experiment on Hordeum vulgare (0.5 kg/ha) is recorded as 40 cm; with Hordeum vulgare (1.0 kg/ha), 38 cm; in the experiment on Hordeum vulgare (2.0 kg/ha), 53 cm.

Regarding `Clc1ccc(CN2N=NC3C4CC(C5N=NC45)C32)cc1` (centres unmarked), the Growth height came to 40 cm in the experiment on Triticum aestivum (leaf treatment, 0.5 kg/ha); 39 cm in the experiment with Triticum aestivum (leaf treatment, 1.0 kg/ha); 40 cm in the experiment on Triticum aestivum (leaf treatment, 2.0 kg/ha); 40 cm in the experiment with Triticum aestivum (soil treatment, 0.5 kg/ha); 40 cm with Triticum aestivum (soil treatment, 1.0 kg/ha); 30 cm in the experiment with Triticum aestivum (soil treatment, 2.0 kg/ha). Moreover, the Growth height with Hordeum vulgare (0.5 kg/ha) was determined as 48 cm; in the experiment on Hordeum vulgare (1.0 kg/ha) it was 44 cm; with Hordeum vulgare (2.0 kg/ha), 41 cm.

Take `O=[N+]([O-])c1cccc(N2N=NC3C4CC(C5N=NC45)C32)c1` (centres unmarked): the Growth height in the experiment with Triticum aestivum (leaf treatment, 0.5 kg/ha) stood at 28 cm; in the experiment on Triticum aestivum (leaf treatment, 1.0 kg/ha) it was 28 cm; in the experiment with Triticum aestivum (leaf treatment, 2.0 kg/ha), 17 cm; with Triticum aestivum (soil treatment, 0.5 kg/ha) it was 26 cm; in the experiment with Triticum aestivum (soil treatment, 1.0 kg/ha), 26 cm; in the experiment on Triticum aestivum (soil treatment, 2.0 kg/ha), 13 cm. Moreover, the results for the Growth height in the experiment on Hordeum vulgare (0.5 kg/ha), in the experiment with Hordeum vulgare (1.0 kg/ha) and with Hordeum vulgare (2.0 kg/ha) were 36 cm, 36 cm and 29 cm, respectively.

For `FC(F)(F)c1ccc(Cl)c(N2N=NC3C4CC(C5N=NC45)C32)c1` (centres unmarked) [drawing 361], the Growth height with Triticum aestivum (leaf treatment, 0.5 kg/ha) is on record as 42 cm; in the experiment on Triticum aestivum (leaf treatment, 1.0 kg/ha), 27 cm; in the experiment with Triticum aestivum (leaf treatment, 2.0 kg/ha), 20 cm; in the experiment with Triticum aestivum (soil treatment, 0.5 kg/ha), 16 cm; with Triticum aestivum (soil treatment, 1.0 kg/ha) it was 15 cm; in the experiment on Triticum aestivum (soil treatment, 2.0 kg/ha) it was 0 cm. The Growth height with Hordeum vulgare (0.5 kg/ha) turned out to be 40 cm; in the experiment with Hordeum vulgare (1.0 kg/ha), 39 cm; in the experiment with Hordeum vulgare (2.0 kg/ha) it was 38 cm.

As to `Clc1cccc(N2N=NC3C4CC(C5N=NC45)C32)c1` (centres unmarked) [drawing 364], the Growth height came out at 29 cm in the experiment on Triticum aestivum (leaf treatment, 0.25 kg/ha); 25 cm in the experiment with Triticum aestivum (leaf treatment, 0.5 kg/ha); 13 cm in the experiment with Triticum aestivum (leaf treatment, 1.0 kg/ha); 12 cm with Triticum aestivum (leaf treatment, 2.0 kg/ha); 26 cm in the experiment with Triticum aestivum (soil treatment, 0.25 kg/ha); 15 cm with Triticum aestivum (soil treatment, 0.5 kg/ha). The Growth height in the experiment with Hordeum vulgare (0.5 kg/ha) came to 43 cm; in the experiment with Hordeum vulgare (1.0 kg/ha) it was 40 cm; in the experiment on Hordeum vulgare (2.0 kg/ha), 30 cm.

As to `Brc1ccccc1N1N=NC2C3CC(C4N=NC34)C21` (centres unmarked) [drawing 365], the Growth height is reported as 35 cm in the experiment with Triticum aestivum (leaf treatment, 0.5 kg/ha); 33 cm in the experiment on Triticum aestivum (leaf treatment, 1.0 kg/ha); 33 cm in the experiment on Triticum aestivum (leaf treatment, 2.0 kg/ha); 22 cm in the experiment with Triticum aestivum (soil treatment, 0.5 kg/ha); 12 cm in the experiment with Triticum aestivum (soil treatment, 1.0 kg/ha); 10 cm with Triticum aestivum (soil treatment, 2.0 kg/ha). Further, the Growth height in the experiment with Hordeum vulgare (0.5 kg/ha) was 40 cm; with Hordeum vulgare (1.0 kg/ha), 42 cm; in the experiment on Hordeum vulgare (2.0 kg/ha), 31 cm.

Turning to `Brc1cccc(N2N=NC3C4CC(C5N=NC45)C32)c1` (centres unmarked) [drawing 366], the Growth height in the experiment with Triticum aestivum (leaf treatment, 0.5 kg/ha) was determined as 33 cm; with Triticum aestivum (leaf treatment, 1.0 kg/ha) it was 28 cm; in the experiment with Triticum aestivum (leaf treatment, 2.0 kg/ha), 17 cm; in the experiment on Triticum aestivum (soil treatment, 0.5 kg/ha), 24 cm; in the experiment with Triticum aestivum (soil treatment, 1.0 kg/ha), 20 cm; in the experiment with Triticum aestivum (soil treatment, 2.0 kg/ha), 16 cm. Besides, the Growth height is on record as 38 cm in the experiment with Hordeum vulgare (0.5 kg/ha), 30 cm in the experiment on Hordeum vulgare (1.0 kg/ha) and 27 cm with Hordeum vulgare (2.0 kg/ha).

As to `c1cc2sncc2cc1N1N=NC2C3CC(C4N=NC34)C21` (centres unmarked) [drawing 368], the Growth height in the experiment on Triticum aestivum (leaf treatment, 0.25 kg/ha) is reported as 30 cm; in the experiment with Triticum aestivum (leaf treatment, 0.5 kg/ha), 23 cm; in the experiment with Triticum aestivum (leaf treatment, 1.0 kg/ha) it was 26 cm; in the experiment on Triticum aestivum (leaf treatment, 2.0 kg/ha), 20 cm; in the experiment on Triticum aestivum (soil treatment, 0.25 kg/ha) it was 32 cm; with Triticum aestivum (soil treatment, 0.5 kg/ha) it was 28 cm. Further, the Growth height in the experiment with Triticum aestivum (soil treatment, 1.0 kg/ha) is 20 cm; in the experiment with Triticum aestivum (soil treatment, 2.0 kg/ha), 23 cm; with Hordeum vulgare (0.5 kg/ha) it was 36 cm; with Hordeum vulgare (1.0 kg/ha), 39 cm; in the experiment with Hordeum vulgare (2.0 kg/ha) it was 31 cm.

Turning to `Clc1ccc(N2N=NC3C4CC(C5NNC45)C32)cc1` (centres unmarked) [drawing 369], the Growth height in the experiment on Triticum aestivum (leaf treatment, 0.25 kg/ha) was 36 cm; with Triticum aestivum (leaf treatment, 0.5 kg/ha), 30 cm; in the experiment on Triticum aestivum (leaf treatment, 1.0 kg/ha), 28 cm; in the experiment with Triticum aestivum (leaf treatment, 2.0 kg/ha) it was 25 cm; with Triticum aestivum (soil treatment, 0.25 kg/ha), 22 cm; with Triticum aestivum (soil treatment, 0.5 kg/ha) it was 12 cm. Besides, the Growth height with Triticum aestivum (soil treatment, 1.0 kg/ha) turned out to be 6 cm; in the experiment on Triticum aestivum (soil treatment, 2.0 kg/ha), 7 cm; with Hordeum vulgare (0.25 kg/ha), 36 cm; in the experiment with Hordeum vulgare (0.5 kg/ha), 30 cm; in the experiment on Hordeum vulgare (1.0 kg/ha), 18 cm; in the experiment with Hordeum vulgare (2.0 kg/ha) it was 14 cm.

Turning to `CC(C)OC(=O)Nc1cccc(Cl)c1` [drawing 426], the percentage damage with Solanum nigrum (postemergence, 2.0 kg/ha) is reported as 22 percentage damage; in the experiment with Solanum nigrum (postemergence, 4.0 kg/ha), 22 percentage damage; in the experiment on Solanum nigrum (postemergence, 8.0 kg/ha) it was 38 percentage damage; in the experiment on Solanum nigrum (preemergence, 2.0 kg/ha), 85 percentage damage; with Solanum nigrum (preemergence, 4.0 kg/ha), 85 percentage damage; with Solanum nigrum (preemergence, 8.0 kg/ha), 90 percentage damage. Also, the percentage damage is 50 percentage damage in the experiment on Lamium spp. (postemergence, 2.0 kg/ha); 50 percentage damage with Lamium spp. (postemergence, 4.0 kg/ha); 90 percentage damage in the experiment with Lamium spp. (postemergence, 8.0 kg/ha); 72 percentage damage in the experiment with Lamium spp. (preemergence, 2.0 kg/ha); 90 percentage damage in the experiment with Lamium spp. (preemergence, 4.0 kg/ha); 95 percentage damage in the experiment with Lamium spp. (preemergence, 8.0 kg/ha). Further, the pest or weed control at 2000 g/ha stood at 0% with Galium aparine (post-emergence, postemergence); 88% in the experiment on Galium aparine (pre-emergence, preemergence); 30% with Poa annua (post-emergence, postemergence); 100% in the experiment on Poa annua (pre-emergence, preemergence). Besides, the pest or weed control at 4000 g/ha is 0% with Galium aparine (post-emergence, postemergence); 80% with Galium aparine (pre-emergence, preemergence); 30% in the experiment on Poa annua (post-emergence, postemergence); 100% in the experiment on Poa annua (pre-emergence, preemergence). Besides, the pest or weed control at 8000 g/ha in the experiment on Galium aparine (post-emergence, postemergence) stood at 10%; in the experiment with Galium aparine (pre-emergence, preemergence) it was 88%; with Poa annua (post-emergence, postemergence), 42%; in the experiment on Poa annua (pre-emergence, preemergence), 100%.

As for `CN(C)C(=O)Nc1ccc(Oc2ccccc2)cc1` [drawing 427], the percentage damage with Solanum nigrum (postemergence, 2.0 kg/ha) is reported as 100 percentage damage; with Solanum nigrum (postemergence, 4.0 kg/ha), 100 percentage damage; in the experiment with Solanum nigrum (postemergence, 8.0 kg/ha), 100 percentage damage; with Solanum nigrum (preemergence, 2.0 kg/ha), 75 percentage damage; with Solanum nigrum (preemergence, 4.0 kg/ha), 80 percentage damage; in the experiment with Solanum nigrum (preemergence, 8.0 kg/ha), 90 percentage damage. The percentage damage came out at 75 percentage damage in the experiment on Lamium spp. (postemergence, 2.0 kg/ha); 85 percentage damage in the experiment on Lamium spp. (postemergence, 4.0 kg/ha); 85 percentage damage in the experiment on Lamium spp. (postemergence, 8.0 kg/ha); 50 percentage damage in the experiment on Lamium spp. (preemergence, 2.0 kg/ha); 65 percentage damage in the experiment on Lamium spp. (preemergence, 4.0 kg/ha); 75 percentage damage with Lamium spp. (preemergence, 8.0 kg/ha). Besides, the pest or weed control at 2000 g/ha amounted to 0% in the experiment with Galium aparine (post-emergence, postemergence); 60% in the experiment with Galium aparine (pre-emergence, preemergence); 30% in the experiment on Poa annua (post-emergence, postemergence); 50% in the experiment on Poa annua (pre-emergence, preemergence). Also, the pest or weed control at 4000 g/ha was found to be 0% with Galium aparine (post-emergence, postemergence); 80% in the experiment with Galium aparine (pre-emergence, preemergence); 30% in the experiment with Poa annua (post-emergence, postemergence); 58% in the experiment on Poa annua (pre-emergence, preemergence). In addition, the pest or weed control at 8000 g/ha in the experiment on Galium aparine (post-emergence, postemergence) stood at 0%; in the experiment with Galium aparine (pre-emergence, preemergence) it was 75%; in the experiment with Poa annua (post-emergence, postemergence), 30%; in the experiment on Poa annua (pre-emergence, preemergence), 65%.

For the origin of these results see patent publication US4257941A, “Polycyclic nitrogen-containing compounds” (BASF Aktiengesellschaft, priority 1976, dated 1981).
